Test [1] relates to HCT-116. Put plainly: Cytotoxicity against human HCT116 cells assessed as reduction in cell viability after 48 hrs by MTT assay. It counts as functional, cell-based. Conditions: HCT-116, 48 h. (Tetrazolium dyes change colour on reduction, which living cells bring about.)
Test [2] deals with HCT-116. Put plainly: Induction of apoptosis in human HCT116 cells assessed as increase in caspase-9 protein expression after 48 hrs by Western blot analysis. It counts as functional, cell-based.
Test [3] concerns HCT-116. Put plainly: Induction of apoptosis in human HCT116 cells assessed as increase in cleaved caspase-9 protein expression after 48 hrs by Western blot analysis. The class given is functional, cell-based. (In general: A western blot detects proteins with antibodies after separation by electrophoresis.)
Test [4] concerns HCT-116. Put plainly: Induction of apoptosis in human HCT116 cells assessed as early apoptotic cells at 10 uM after 48 hrs by Annexin-V/propidium iodide staining-based flow cytometric analysis (reference value: 4.2%). The class given is functional. A general note: Flow cytometry measures light scatter and fluorescence of single cells or particles in a stream.
Test [5] has as its system HCT-116. Put plainly: Induction of apoptosis in human HCT116 cells assessed as late apoptotic cells at 10 uM after 48 hrs by Annexin-V/propidium iodide staining-based flow cytometric analysis (reference value: 9.3%). The class given is functional.
Test [6] deals with HCT-116. Put plainly: Induction of apoptosis in human HCT116 cells assessed as early apoptotic cells at 50 uM after 48 hrs by Annexin-V/propidium iodide staining-based flow cytometric analysis (reference value: 4.2%). The class given is functional.
Test [7] has as its system HCT-116. Put plainly: Induction of apoptosis in human HCT116 cells assessed as late apoptotic cells at 50 uM after 48 hrs by Annexin-V/propidium iodide staining-based flow cytometric analysis (reference value: 9.3%). The class given is functional.
Test [8] relates to HCT-116. Description: Induction of morphological changes in human HCT116 cells assessed as cell rounding and shrinkage. It counts as functional, cell-based.

The source made the active and inactive calls. The rule behind the calls is not given here.

The results in this text go back to ChEMBL document CHEMBL4020783, “Cytotoxic pterosins from Pteris multifida roots against HCT116 human colon cancer cells” (Bioorg Med Chem Lett, 2017).

Broadly, the IC50 is the concentration at which inhibition is half-maximal. `Cc1cc2c(c(C)c1CCO)C(=O)[C@@H](C)[C@@H]2O[C@@H]1O[C@H](COC(=O)/C=C/c2ccc(O)cc2)[C@@H](O)[C@H](O)[C@H]1O`: the concentration for half-maximal inhibition (IC50) in the test with HCT-116 [1] was 17.2 µM.

As for `Cc1cc2c(c(C)c1CCO)C(=O)[C@H](C)C2`, in the test on HCT-116 [1], the IC50 is 50.1 µM.

For `Cc1cc2c(c(C)c1CCO[C@@H]1O[C@H](CO)[C@@H](O)[C@H](O)[C@H]1O)C(=O)[C@H](C)C2`, the IC50 with HCT-116 [1] worked out at 80.7 µM.

On to `Cc1cc2c(c(C)c1CCO)C(=O)[C@H](C)[C@@H]2O`, for which, in the test with HCT-116 [1], the IC50 was 253 µM.

Consider `Cc1cc2c(c(C)c1CCO)C(=O)[C@](C)(CO)[C@@H]2O`, for which the half-inhibitory concentration (IC50) with HCT-116 [1] is 106 µM.

As for `Cc1cc2c(c(C)c1CCO)C(=O)[C@@H](C)[C@@H]2O`, in the test on HCT-116 [1], the concentration for half-maximal inhibition (IC50) came to 72.9 µM.

Take `Cc1cc2c(c(C)c1CCO)C(=O)[C@@H](C)[C@@H]2O[C@@H]1O[C@H](CO)[C@@H](O)[C@H](O)[C@H]1O`: in the test with HCT-116 [1], the IC50 was determined as 32.9 µM.

For the compound `Cc1cc2c(c(C)c1CCO)C(=O)[C@@H](C)[C@@H]2O[C@@H]1O[C@H](CO)[C@@H](OC(=O)/C=C/c2ccc(O)c(O)c2)[C@H](O)[C@H]1O`, the half-inhibitory concentration (IC50) in the test with HCT-116 [1] is 8 µM. Also, the Activity entry is “Dose-dependent effect” with HCT-116 [2]; “Dose-dependent effect” in the test on HCT-116 [3]; 6.2% in the test on HCT-116 [4]; 20.9% with HCT-116 [5]; 17.1% with HCT-116 [6]; 31.6% with HCT-116 [7]. Moreover, the outcome in the test on HCT-116 [8] was Active.

As for `CO[C@@H]1c2cc(C)c(CCO)c(C)c2C(=O)[C@H]1C`, the IC50 in the test on HCT-116 [1] came out at 79.4 µM.

With `O=c1[nH]cc(F)c(=O)[nH]1` [FLUOROURACIL], in the test with HCT-116 [1], the IC50 was determined as 41.9 µM.

As for `Cc1cc2c(c(C)c1CCO)C(=O)C(C)(C)[C@@H]2O`, the 50% inhibitory concentration (IC50) with HCT-116 [1] came out at 184 µM.

Take `Cc1cc2c(c(CO)c1CCO)C(=O)C(C)(C)[C@@H]2O`: the IC50 in the test on HCT-116 [1] turned out to be 120 µM.

Consider `Cc1cc2c(c(CO)c1CCO[C@@H]1O[C@H](CO)[C@@H](O)[C@H](O)[C@H]1O)C(=O)C(C)(C)[C@@H]2O`, for which the IC50 in the test with HCT-116 [1] worked out at 81.2 µM.
